Our source for the IC50 and Ki values is ChEMBL document CHEMBL1944535, “Synthesis, in vitro binding studies and docking of long-chain arylpiperazine nitroquipazine analogues, as potential serotonin transporter inhibitors” (Eur J Med Chem, 2012).

pIC50, pKi: −log10 of the molar value.

Assay [1] has as its target Sodium-dependent serotonin transporter (Rattus norvegicus, UniProt P31652). The experiment in a line: Displacement of [3H]-Citalopram from SERT in rat cerebral cortex homogenates after 1 hr by liquid scintillation counter. The class given is tissue-based.
The target in assay [2] is Sodium-dependent serotonin transporter (Homo sapiens, UniProt P31645). Put plainly: Displacement of [3H]-5HT from human SERT. For orientation: Displacement assays read how much labelled ligand stays bound in the presence of the test substance.
Sodium-dependent serotonin transporter (Homo sapiens, UniProt P31645), sequence (P31645 whole entry): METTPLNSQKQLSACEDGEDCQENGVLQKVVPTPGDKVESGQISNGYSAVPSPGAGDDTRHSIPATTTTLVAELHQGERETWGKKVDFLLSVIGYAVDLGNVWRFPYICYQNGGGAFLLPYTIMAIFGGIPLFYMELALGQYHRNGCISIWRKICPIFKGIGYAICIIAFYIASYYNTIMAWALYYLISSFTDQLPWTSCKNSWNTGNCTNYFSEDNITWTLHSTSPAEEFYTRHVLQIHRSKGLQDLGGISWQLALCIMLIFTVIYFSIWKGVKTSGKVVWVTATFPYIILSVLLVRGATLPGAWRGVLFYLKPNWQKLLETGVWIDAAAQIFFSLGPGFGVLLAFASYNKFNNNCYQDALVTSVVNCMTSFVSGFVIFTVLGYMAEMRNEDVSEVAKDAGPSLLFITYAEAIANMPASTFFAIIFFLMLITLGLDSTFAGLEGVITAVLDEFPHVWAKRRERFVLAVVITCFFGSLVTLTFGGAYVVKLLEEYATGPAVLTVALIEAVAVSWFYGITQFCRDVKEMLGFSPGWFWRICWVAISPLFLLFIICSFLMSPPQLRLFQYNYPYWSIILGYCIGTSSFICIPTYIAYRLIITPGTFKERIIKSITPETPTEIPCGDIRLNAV

Sodium-dependent serotonin transporter (Rattus norvegicus, UniProt P31652), sequence (P31652 whole entry): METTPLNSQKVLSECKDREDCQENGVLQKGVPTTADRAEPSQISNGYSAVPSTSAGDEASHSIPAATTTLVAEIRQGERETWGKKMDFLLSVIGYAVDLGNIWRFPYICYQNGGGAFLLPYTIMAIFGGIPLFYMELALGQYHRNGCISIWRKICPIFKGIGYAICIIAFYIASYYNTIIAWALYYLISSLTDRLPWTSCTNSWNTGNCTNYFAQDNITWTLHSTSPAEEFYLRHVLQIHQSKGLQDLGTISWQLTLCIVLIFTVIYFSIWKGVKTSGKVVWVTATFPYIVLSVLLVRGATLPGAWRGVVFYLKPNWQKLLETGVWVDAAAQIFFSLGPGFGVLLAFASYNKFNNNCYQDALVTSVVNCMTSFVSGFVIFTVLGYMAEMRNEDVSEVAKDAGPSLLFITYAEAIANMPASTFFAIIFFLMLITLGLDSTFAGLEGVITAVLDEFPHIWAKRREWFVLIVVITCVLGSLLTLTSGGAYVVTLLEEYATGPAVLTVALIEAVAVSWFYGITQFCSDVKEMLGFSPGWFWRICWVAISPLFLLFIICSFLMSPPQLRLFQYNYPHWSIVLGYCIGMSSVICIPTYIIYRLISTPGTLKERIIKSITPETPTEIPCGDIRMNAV

Broadly, the pIC50 is the negative decadic logarithm of the IC50, by convention in mol/L. High values mean a small IC50, low ones a large IC50. For the compound `CC1CN(c2ccc3cc([N+](=O)[O-])ccc3n2)CCN1CCCCN1C(=O)CC2(CCCC2)CC1=O` (stereo unspecified), the pIC50 in assay [1] is 5.87.

Compound `CC(=O)Nc1ccc2nc(N3CCN(CCCCN4C(=O)CC5(CCCC5)CC4=O)CC3)ccc2c1` gave a negative logarithm of the IC50 (pIC50) in assay [1] of 4.73. This pIC50 lies 1.14 log units lower than the previous one.

A word on the pKi: it is the Ki on a negative log10 scale, so that one unit is a factor of ten. Lower therefore signals a large Ki. The compound `O=[N+]([O-])c1ccc2nc(N3CCNCC3)ccc2c1` [6-NITROQUIPAZINE] gave a pKi in assay [2] of 9.77.

In turn, `O=C1CCCC(=O)N1CCCCN1CCN(c2ccc3cc([N+](=O)[O-])ccc3n2)CC1` gave a pIC50 in assay [1] of 6.04.

In assay [1], `CC1(C)CC(=O)N(CCCCN2CCN(c3ccc4c(Cl)cccc4n3)CC2)C(=O)C1` had a pIC50 of 5.55.

In turn, `CC1CN(c2ccc3cc([N+](=O)[O-])ccc3n2)CCN1CCCCN1C(=O)CC(C)(C)CC1=O` (stereo unspecified) showed a pIC50 in assay [1] of 6.09.

Take `CC1(C)CC(=O)N(CCCCN2CCN(c3ccc4cc([N+](=O)[O-])ccc4n3)CC2)C(=O)C1`: the pIC50 in assay [1] is 6.21.

Turning to `CC1CN(c2ccc3cc([N+](=O)[O-])ccc3n2)CCN1CCCCN1C(=O)CCCC1=O` (stereo unspecified), the pIC50 in assay [1] was 6.57.

Consider `CC1CN(c2ccc3ccccc3n2)CCN1CCCCN1C(=O)CC(C)(C)CC1=O` (stereo unspecified), for which the pIC50 in assay [1] is 6.77.

`O=C1CC2(CCCC2)CC(=O)N1CCCCN1CCN(c2ccc3cc([N+](=O)[O-])ccc3n2)CC1` had a pIC50 in assay [1] of 4.59.

In assay [1], `O=C1c2ccccc2C(=O)N1CCCCN1CCN(c2ccc3cc([N+](=O)[O-])ccc3n2)CC1` gave a pIC50 of 5.38.
